These are literature values, as cited in patent US11857556B2, “Topical compositions of dutasteride” (SHILPA MEDICARE LIMITED, priority 2021, dated 2024).

Consider `C[C@]12C=CC(=O)N[C@@H]1CC[C@@H]1[C@@H]2CC[C@]2(C)[C@@H](C(=O)Nc3cc(C(F)(F)F)ccc3C(F)(F)F)CC[C@@H]12` [Dutasteride, (5α,17β)-N-{2,5-bis(trifluoromethyl)phenyl}-3-oxo-4-azaandrost-1-ene-17-carboxamide], for which, where the note is “ethanol, methanol and polyethylene glycol 400”, the “Solubility in ethanol, methanol and polyethylene glycol 400” value is “soluble”. Where the note is “water”, the Solubility in water entry was “insoluble”.
